Entries after “also recorded” stand apart in the source; their conditions may differ. Read-outs that look alike come from different tables or passages of the source.
What was measured:
[1] = biological target: T1, binding of SARS-CoV-2 Spike protein (S1 subunit) to ACE2 (UniProt P0DTC2+Q9BYF1); assay: biochemical
T1 construct: a fusion protein of the SARS-CoV-2 spike protein S1 subunit and the horseradish peroxidase (HRP) enzyme

[2] = system: SARS-CoV-2 USA-WA1/2020 virus; format: cell-based
[3] = system: SARS-CoV-2-infected permissive cell lines (Vero E6, Huh-7.5, A549 ACE2+, HT1080 ACE2+)

T1 sequence (Q9BYF1 18-740, one chain of several): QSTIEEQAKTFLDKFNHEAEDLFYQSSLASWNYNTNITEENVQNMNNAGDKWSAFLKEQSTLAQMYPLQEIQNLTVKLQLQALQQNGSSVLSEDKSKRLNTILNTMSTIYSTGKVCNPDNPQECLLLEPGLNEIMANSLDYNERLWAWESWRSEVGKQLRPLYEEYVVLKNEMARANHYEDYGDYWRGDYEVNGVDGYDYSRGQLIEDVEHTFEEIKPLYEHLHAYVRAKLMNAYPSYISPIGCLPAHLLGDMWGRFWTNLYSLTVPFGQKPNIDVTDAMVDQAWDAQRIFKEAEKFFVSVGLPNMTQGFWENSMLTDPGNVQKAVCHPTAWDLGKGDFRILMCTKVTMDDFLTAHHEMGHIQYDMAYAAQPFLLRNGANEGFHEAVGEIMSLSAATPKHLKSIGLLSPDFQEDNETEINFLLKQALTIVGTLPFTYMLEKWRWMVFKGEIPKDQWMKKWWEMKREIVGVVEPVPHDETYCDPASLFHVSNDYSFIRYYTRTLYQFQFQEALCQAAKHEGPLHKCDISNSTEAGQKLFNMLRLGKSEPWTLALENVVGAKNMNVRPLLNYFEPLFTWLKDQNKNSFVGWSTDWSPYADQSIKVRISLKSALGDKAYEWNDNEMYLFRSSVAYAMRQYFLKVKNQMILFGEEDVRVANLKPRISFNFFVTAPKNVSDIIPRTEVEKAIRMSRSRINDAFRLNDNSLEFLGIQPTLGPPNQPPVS

Compound | Active (Y or N) [1] | also measured
Vitamin B12 | N | inhibition of the binding of SARS-CoV-2 Spike protein to ACE2 (in words) [1]: non-active
C1=Cc2nc1cc1ccc([nH]1)c(-c1ccccc1)c1nc(cc3ccc([nH]3)c2-c2ccccc2)C=C1 [5,15-diphenyl-21H,23H-porphine] | N | –
C[n+]1ccc(-c2c3nc(c(-c4cc[n+](C)cc4)c4ccc([nH]4)c(-c4cc[n+](C)cc4)c4ccc([nH]4)c(-c4cc[n+](C)cc4)c4nc2C=C4)C=C3)cc1 [TmPyP4] | N | –
N-Methyl Protoporphyrin | N | –
C=Cc1c(C)c2cc3nc(c4c5[nH]c(cc6nc(cc1[nH]2)C(C)=C6CC)c(C)c5C(=O)[C@@H]4C(=O)OC)[C@@H](CCC(=O)O)[C@@H]3C [Pheophorbide A] | Y | IC50 [1]: 500 nM; inhibition of the binding of SARS-CoV-2 Spike protein to ACE2 (in words) [1]: dose dependent decrease in binding; also recorded: dose-dependent inhibition; antiviral activity under light exposure versus dark [2]: generally improved; antiviral activity without photoactivation [2]: exhibit antiviral activity in the dark; antiviral effect with pre-treatment versus treatment after infection [2]: more pronounced; inhibition of SARS-CoV-2 infection in culture [2]: significantly inhibits; toxicity to the infected cells relative to antiviral doses [3]: antiviral activity was detected at doses lower than the dosing where pheophorbide A was toxic
Coproporphyrin III | N | –
C=Cc1c(C)c2cc3nc(c(CC(=O)O)c4[nH]c(cc5nc(cc1[nH]2)C(C)=C5CC)c(C)c4C(=O)O)[C@@H](CCC(=O)O)[C@@H]3C [Chlorin E6] | Y (weak) | IC50 ([1]; read-out: IC50): 5000 nM
C=Cc1c(C)c2cc3nc(c4c5[n-]c(cc6nc(cc1[n-]2)C(C)=C6CC)c(C)c5C(=O)[C@@H]4C(=O)OC)[C@@H](CCC(=O)OC/C=C(\C)CCC[C@H](C)CCC[C@H](C)CCCC(C)C)[C@@H]3C.[Mg+2] [Chlorophyll A] | N | –
C1=Cc2cc3ccc(cc4nc(cc5ccc(cc1n2)[nH]5)C=C4)[nH]3 [Porphine] | N | –
Verteporfin | Y | IC50 ([1]; read-out: IC50): 225 nM
MnTBAP | N | –
C=CC1=C(C)c2cc3[nH]c(cc4nc(cc5[nH]c(cc1n2)c(C)c5CCC(=O)O)C(CCC(=O)O)=C4C)c(C)c3C=C [Protoporphyrin IX] | – | IC50 [1]: 1200 nM
N-Methyl Mesoporphyrin | N | –
C=Cc1c(C)c2cc3nc(c4c5[n-]c(cc6nc(cc1[n-]2)C(C=O)=C6CC)c(C)c5C(=O)[C@@H]4C(=O)OC)[C@@H](CCC(=O)OC/C=C(\C)CCC[C@H](C)CCC[C@H](C)CCCC(C)C)[C@@H]3C.[Mg+2] [Chlorophyll B] | N | –

From US20240366564A1, “Use of Chlorophyll Derivatives for the Treatment of SARS-CoV-2 Infection” (priority 2021, published 2024)
